Where two headings read alike, the source gives them in different places. Where no end group is shown, it is not given here.
Columns and labels:
[1] = Heme-peptide binding assay (colour change); conditions: equimolar heme and peptide, 100 µM, 1 h, room temperature
Method: Heme solutions were freshly prepared by dissolving hemin chloride (Sigma Cat No: 3741) in 0.1 M NaOH and used within an hour after preparation. Two heme-sequestering peptides, NCR247 and NCR455 ([Montiel et al., 2017]; [Sankari et al., 2022]), were used as positive controls, and water-only treatment as a negative control. The equimolar concentration of heme and peptide (100 µM) or water were mixed and incubated at room temperature for 1 h. When dissolved in NaOH, heme is light to dark brown in color; however, when it binds to a peptide, the color changes to reddish-brown as described by [Sankari et al. (2022)]. The change in color of heme to reddish-brown indicated the heme binding ability of the peptide.

[2] = tested on: C. sojina QoI fungicide-sensitive isolate Cs320; assay: microbe, parasite or virus in culture; type: cell-based, Cercospora sojina; conditions: for MIC: Cercospora sojina, read-out: MIC (µM) against Fungicide sensitive C. sojina isolate (Cs320); for MIC (µM) against Fungicide sensitive C. sojina isolate (Cs320): QoI fungicides, determined in 2 days, 0.02 µM lowest concentration tested
Method: (§1) In vitro antifungal activity of AFPs and QoI fungicides was determined using 96-well plate assays as described ([Velivelli et al., 2020]) with slight modifications. Briefly, 2- to 3-week-old C. sojina was used to make a conidial suspension in 2× SFM at the final concentration of ∼10^5 conidia ml^−1. Simultaneously, peptide dilutions (in water) at various concentrations were made. Fungicides were dissolved in 50% acetone and 50% water to make a stock solution of 500 µM, and serial dilutions were made in water as needed. The peptide–conidia or the fungicide–conidia mixture at the ratio of 1:1 (45 µl:45 µl) was added in a 96-well plate and incubated at room temperature for 48 h, after which MICs of the peptides/fungicides were calculated based on microscopy as well as the resazurin cell viability assay ([Velivelli et al., 2020]).

[3] = tested on: C. sojina QoI fungicide-resistant isolate Cs350; type: cell-based, Cercospora sojina
Method: as §1

[4] = tested on: fungicide-sensitive and -resistant isolates of C. sojina; assay: In vitro antifungal activity assay (MIC stated across isolates); type: cell-based, Cercospora sojina
Method: as §1

[5] = Peroxidase assay (TMB substrate); type: biochemical; conditions: heme 5 µM, peptide 5 µM, absorption at 370 nm and 652 nm
Method: A Pierce TMB substrate kit (Thermo Scientific) was used to measure the peroxidase activity of heme. In a transparent 96-well plate, 50 µl of TMB substrate and 50 µl of […] were added followed by addition of heme (5 µM) or peptides plus heme (5 µM each). The reaction progression was measured in the Tecan plate reader, by recording UV-vis absorption values at 370 nm and 652 nm for every minute up to 1 h.

[6] = tested on: C. sojina Cs350 (fungicide resistant); assay: Peptide-fungicide checkerboard assay; type: cell-based, Cercospora sojina; conditions: for MIC: read-out: Individual MIC; for interaction with NCR13_PFV1 by FIC index: Cs350, in vitro
Method: (§2) Synergy between NCR13_PFV1 and the widely used QoI foliar fungicides, azoxystrobin (Sigma-Aldrich, Cat No: 31697), trifloxystrobin (Sigma-Aldrich, Cat No: 46447), and pyraclostrobin (Sigma-Aldrich, Cat No: 33696), were evaluated using checkerboard assays. This assay was performed in a 96-well plate and the preparation of conidial suspension, peptide dilutions, and fungicide dilutions were similar to the in vitro antifungal activity assay described above. The presence of an alternative respiration pathway allows some fungi including C. sojina to germinate even in the presence of a high dose of QoI fungicides in vitro ([Ziogas et al., 1997]; [Zhang et al., 2012]). Therefore, to prevent alternative respiration in C. sojina, salicylhydroxamic acid (SHAM) was added in each reaction at the final concentration of 60 µg ml^–1 ([Zhang et al., 2012]). The conidia, peptide, fungicide, and SHAM were added in a 96-well plate at the v/v ratio of 4:1:1:2 (50 µl:12.5 µl:12.5 µl:25 µl) in the final reaction volume of 100 µl, and the plate was incubated at room temperature for 96 h (4 d). After 96 h, MIC values of the peptide–fungicide combination, peptide alone, and fungicide alone were calculated based on microscopy as well as the resazurin cell viability assay. The fractional inhibitory concentration (FIC) index was calculated using the formula FIC = (MICA+B/MICA) + (MICB+A/MICB), where MICA and MICB are the MIC for peptide (A) alone and fungicide (B) alone, respectively, MICA+B is the MIC for peptide in combination with fungicide (A+B), and MICB+A is the MIC for fungicide in combination with peptide (B+A). The FIC index was interpreted as: synergistic, ≤0.5; additive, >0.5–1.0; indifferent, >1 to <4.0; or antagonistic, ≥4.0.

[7] = tested on: C. sojina Cs350 on soybean cv. Blackhawk (FLS); assay: In planta post-inoculation assay of NCR13_PFV1 and azoxystrobin combinations; type: in vivo, Cercospora sojina; conditions: azoxystrobin alone sprayed at 3 µM and 6 µM
Method: To further test additive/synergistic interaction between NCR13_PFV1 and azoxystrobin against the fungicide-resistant isolate Cs350, in planta assays were performed. These assays were similar to the post-inoculation in planta assays as mentioned above. Briefly, second or third trifoliate leaves of soybean were first sprayed with 1 ml of Cs350 conidial suspension (1×10^5 ml^−1) followed by spray application with 1 ml of NCR13_PFV1 (24 µM) or azoxystrobin (3 µM or 6 µM) or their combination (24 µM NCR13_PFV1 plus 3 µM azoxystrobin or 24 µM NCR13_PFV1 plus 6 µM azoxystrobin) or water after 2 h of pathogen inoculation. Plants were incubated in the growth chamber, and disease scoring was done as described above.

[8] = tested on: C. sojina Cs320 (fungicide sensitive); assay: Peptide-fungicide checkerboard assay; type: cell-based, Cercospora sojina; conditions: Cs320, in vitro, 96 h
Method: as §2

[9] = tested on: C. sojina Cs350 conidia and germlings; assay: Plasma membrane permeabilization assay (SYTOX Green); type: cell-based, Cercospora sojina; conditions: Cs350; 0.5 µM SG; confocal microscopy
Method: Membrane permeabilization of C. sojina Cs350 by NCR13_PFV1 and azoxystrobin was analyzed by visualizing the influx of SYTOX Green (SG) (Thermo Scientific) using time-lapse confocal microscopy. Germlings grown for 6–8 h or conidia of C. sojina were mixed with various concentrations of NCR13_PFV1, azoxystrobin, or both and 0.5 µM SG and were observed under confocal microscopy at an excitation wavelength of 500 nm and an emission wavelength ranging from 510 nm to 600 nm at specific time intervals. A z-stack at each time point was acquired using a ×63 water immersion objective lens (HC PL Apochromat CS2).

[10] = tested on: azoxystrobin-resistant C. sojina Cs350 conidia; assay: Cell death detection assay (propidium iodide, confocal microscopy); type: cell-based, Cercospora sojina; conditions: azoxystrobin 48 μM alone; within 1 h; PI staining; n=3
Method: The fungicidal activity of azoxystrobin and peptide NCR13_PFV1 in azoxystrobin-resistant C. sojina Cs350 was analyzed by visualizing the influx of a cell death indicator dye propidium iodide (PI) using time-lapse confocal microscopy. The C. sojina conidia were treated with various concentrations of azoxystrobin, NCR13_PFV1, azoxystrobin plus NCR13_PFV1, or water and 0.5 μg ml^–1 PI, and were observed under confocal microscopy at an excitation and emission wavelength of 500 nm and 545–690 nm, respectively. Z-stacks at each time point were acquired using a ×63 water immersion objective lens (HC PL Apochromat CS2). For each sample, the number of live and dead cells after 1 h of peptide, fungicide, or combination treatment was determined.

[11] = SFM, ~10^5 conidia ml−1, room temperature, 48 h, resazurin cell viability assay and microscopy

With “TKPCQSDKDCKKFACRKPKVPKCINGFCKCVR (disulfide (positions not given here)) [NCR13_PFV2]” the “heme binding (colour change of heme from brown to reddish-brown)” value [1] was “no such color change”, the “MIC (μM) against C. sojina isolates, Fungicide sensitive, Cs320” value [2, 11] was 1.5 µM and the “fold increase of MIC with increasing iron concentration” value ([3]; FeSO4 in SFM) was 2 fold. The “MIC (μM) against C. sojina, Fungicide resistant, Cs350” value [3, 11] was 3 µM, the “fold less potent than NCR13_PFV1” value ([4]; from MIC against C. sojina) was 2 fold and the “MIC against fungicide-sensitive and -resistant isolates of C. sojina” value ([4]; range over Cs320 and Cs350, 48 h) was 1.5 to 3 µM. The “peroxidase activity of heme and FeSO4 in the presence of peptide” value (shortened to “peroxidase activity of heme and FeSO4”) [5] was “not reduced or stopped”.
With CON=C(C(=O)OC)c1ccccc1CON=C(C)c1cccc(C(F)(F)F)c1 [Trifloxystrobin, trifloxystrobin] the MIC ([2]; 48 h) was under 0.02 µM, the “MIC (µM) against Fungicide sensitive C. sojina isolate (Cs320)” value (“MIC (µM)” for short) [2] was under 0.02 µM and the MIC ([6]; Cercospora sojina, 96 h, pair trifloxystrobin / NCR13_PFV1, Cs350, 4 d, SHAM 60 µg ml–1, microscopy, highest fungicide concentration 48 µM) was over 48 µM. The “interaction with NCR13_PFV1 by FIC index” value ([6]; 96 h) was “additive (additive, >0.5–1.0)” and the FIC score ([6]; pair trifloxystrobin / NCR13_PFV1, Cs350, 4 d) was at most 1.
For “RNGCIVDPRCPYQQCRRPLYCRRR [NCR247, reference compound]”, the “heme binding (colour change of heme from brown to reddish-brown)” value [1] was “visible color change of heme from brown to reddish-brown” and the “peroxidase activity of heme and FeSO4” value [5] was “reduced or stopped”.
With COC(=O)N(OC)c1ccccc1COc1ccn(-c2ccc(Cl)cc2)n1 [Pyraclostrobin, pyraclostrobin] the MIC ([2]; 48 h) was under 0.02 µM, the “MIC (µM)” value [2] was under 0.02 µM and the MIC ([6]; Cercospora sojina, 96 h, pair pyraclostrobin / NCR13_PFV1, Cs350, 4 d, SHAM 60 µg ml–1, microscopy) was 24 µM. The “interaction with NCR13_PFV1 by FIC index” value ([6]; 96 h) was “additive (additive, >0.5–1.0)” and the FIC score ([6]; pair pyraclostrobin / NCR13_PFV1, Cs350, 4 d) was at most 1.
In the case of CO/C=C(/C(=O)OC)c1ccccc1Oc1cc(Oc2ccccc2C#N)ncn1 [Azoxystrobin, azoxystrobin], the “MIC (µM)” value [2] is reported as 0.09 to 0.18 µM, the “FLS symptoms in planta” value [7] is reported as “able to reduce FLS symptoms in planta” and the “interaction with NCR13_PFV1 by FIC index” value [8] is reported as “additive (additive, >0.5–1.0)”. The “interaction with NCR13_PFV1 by FIC index” value ([6]; 96 h) was “additive (additive, >0.5–1.0)”, the FIC score ([6]; pair azoxystrobin / NCR13_PFV1, Cs350, 4 d) was at most 1 and the “Combination MIC” value ([6]; pair azoxystrobin / NCR13_PFV1, Cs350, 4 d, SHAM 60 µg ml–1, microscopy) was 48 µM. For the same molecule, the MIC ([6]; pair azoxystrobin / NCR13_PFV1, Cs350, 4 d, SHAM 60 µg ml–1, microscopy, highest fungicide concentration 48 µM) was over 48 µM, the “plasma membrane permeabilization (SYTOX Green uptake)” value [9] was “did not permeabilize the plasma membrane” and the cell death [10] was 11%.
In the case of “RNGCIVDARCPYQKCSYPLYCRRR [NCR455, reference compound]”, the “heme binding (colour change of heme from brown to reddish-brown)” value [1] is reported as “visible color change of heme from brown to reddish-brown” and the “peroxidase activity of heme and FeSO4” value [5] is reported as “reduced or stopped”.

Reference: paper PMC13672995, “NCR13 peptide protects soybean against Cercospora sojina using multi-faceted modes of action and additive interaction with chemical fungicides” (Journal of Experimental Botany, 2025)
